Series [1] is described as follows: Pharmacokinetic assay in rats. The series is classed as in vivo. The note with it: male, rat, po, SD rats, p.o. 5 mg/kg, plasma, 0.5% CMC-Na (1% Tween 80); for AUC(0-t): read-out: Area under curve AUC0-t; for MRT inf: read-out: Average residence time MRT0-∞; for half-life: read-out: Half life t1/2 (converted); for Tmax: read-out: Peak time tmax; for Cmax: read-out: Plasma concentration Cmax. As for the experimental part:
Test Example 4. Pharmacokinetic Assay in Rats
SD rats were used as test animals. The pharmacokinetic behavior of the compounds of Examples was studied in rat body (plasma) by orally administration at a dose of 5 mg/kg.
Male SD rats (3 rats per group), purchased from Shanghai Jiesijie Laboratory Animal Co., LTD, with Certificate No.: SCXK (Shanghai) 2013-0006 N0.311620400001794.
5 g of hydroxyethyl cellulose (HEC, CMC-Na, viscosity: 800-1200 Cps) was weighed and dissolved in 1000 mL of purified water, followed by addition of 10 g of Tween80.
After an overnight fast, male SD rats (3 rats per group) were administered p.o. with the test compound at a dose of 5 mg/kg and a volume of 10 mL/kg.
0.2 mL of blood was taken from the jugular vein of the rat before administration and at 0, 0.5, 1, 2, 4, 6, 8 and 24 hours after administration. The samples were stored in EDTA-K2 tubes, and centrifuged for 6 minutes at 4° C., 6000 rpm to separate the plasma. The plasma samples were stored at −80° C.
1) 160 μL of acetonitrile was added to 40 μL of the plasma sample for precipitation, and then the mixture was centrifuged at 3500×g for 5 to 20 minutes.
2) After the above process, 100 μL of the supernatant was taken to analyze the concentration of the test compound by LC/MS/MS.
2.7 Liquid Chromatography Analysis • Liquid chromatography condition: Shimadzu LC-20AD pump • Mass spectrometry condition: AB Sciex API 4000 mass spectrometer • Chromatographic column: phenomenex Gemiu 5 um C18 50×4.6 mm • Mobile phase: Eluent A was 0.1% formic acid in water, and Eluent B was acetonitrile • Flow rate: 0.8 mL/min • Elution time: 0-4.0 minutes, the eluent is as follows:
The main parameters of pharmacokinetics were calculated by WinNonlin 8.2.

Series [2] is described as follows: Plasma protein binding rate (dog). The series is classed as in vitro ADME. The note with it: 37° C. 6 h. Here is the method: Test Example 6. Assay of Plasma Protein Binding Rate
The objective of the experiment is to determine the plasma protein binding of the compounds of the Examples in plasma.
The compound of the Example was formulated into 1 mM solution A with DMSO;
The solution A was added to the plasma solution to obtain 5 μM solution B;
1) 200 μL of solution B was added to the inside of the membrane;
2) […] of PBS was added to the outside of the membrane;
3) Incubation in a water bath at 37° C. for 6 h;
4) The sample was diluted and analyzed by mass spectrometry.

In another series the target is T1, hERG potassium channel (Homo sapiens, UniProt Q12809).
T1 construct: expressed in transfected cells; host or cells: CHO
In words: hERG potassium channel inhibition activity assay (Qpatch, CHO-hERG cells). The series is classed as cell-based. The note with it: Qpatch whole-cell, highest test concentration 40 μM. Here is the method:
Test Example 8. hERG Potassium Channel Inhibition Activity Assay
7.1.1 CHO-hERG cells were cultured in a 175 cm^2 culture flask. After the cell density reached 60-80%, the culture solution was removed. The cells were washed with 7 mL of PBS once, and dissociated with 3 mL of Detachin.
7.1.2 After completion of dissociation, the cells were neutralized with 7 mL of culture solution. The solution was centrifuged, and the supernate was removed. The cells were resuspended in 5 mL of culture solution. The cell indensity is ensured as 2˜5×10^6/mL.
Single cell sealing impedance and formation of whole-cell mode were automatically performed by Qpatch instrument. After obtaining the whole-cell recording mode, the cell was clamped at −80 mV. The cell first underwent pre-voltage of −50 mV for 50 msec, then underwent depolarization stimulation at +40 mV for 5 sec, and then underwent repolarization at −50 mV for 5 sec, and then the voltage returned to −80 mV The cell underwent the stimulation at the voltage every 15 sec. The data were recorded for 2 min, then extracellular fluid was administrated, and then the data were recorded for 5 min. Then, the administration process begun. The concentration of the test compound started from the lowest concentration, and each test concentration was administrated for 2.5 min. At least three cells (n≥3) were tested for each concentration.
4.1 20 mM mother liquor of the compound was diluted with extracellular fluid. […] of extracellular fluid was added to 5 μL of 20 mM mother liquor of the compound to obtain a concentration of 40 μM (500-fold dilution). The solution was subjected to a 3-fold serial dilution with extracellular fluid containing 0.2% DMSO to obtain a required final concentration.
This concentration of DMSO had no effect on hERG potassium channel.
The experimental data was analyzed by XLFit software.

The subject of the next series is BALB/c mice. In words: Taste sensitivity assay in BALB/c mice (quinine solution intake). The note with it: 30 mpk; for Solution consumption of single mouse, Quinine solution: 3 mmol/L quinine hydrochloride, 30 min; for Dysgeusia rate: quinine solution vs solvent groups (20% HP-B-CD). The class given is in vivo. Here is the method:
Test Example 9. Taste Sensitivity Assay in BALB/c Mice
In this assay, compounds with less toxic and side effects on animal taste were screened by quinine bitter solution experiment.
BALB/c mice, 6 to 8 weeks old, ♂, purchased from Shanghai SIPPR-BK Laboratory Animal Co., Ltd.
BALB/c mice were randomly grouped according to body weight, and were deprived of water 12 to 16 hours before administration with no fasting.
An appropriate amount of quinine monohydrochloride dihydrate was weighed and formulated into an aqueous solution quinine hydrochloride (concentration: 3 mmol/L) with ultrapure water for later use.
An appropriate amount of the test compound was weighed and formulated into the target concentration with the corresponding solvent according to the experimental design for later use.
Administration and fasting: On the day of the experiment, the animals were weighed and fasted, bedding was changed, and the compounds were administered according to the experimental design.
1. The corresponding clean mouse drinking bottle was rinsed 2 to 3 times with ultrapure water and the formulated 3 mmol/L aqueous solution of quinine hydrochloriderespectively. The bottle was filled and weighed, and the weight was recorded as Wi0.
2. According to the experimental design, a certain period after administration, the filled bottle was gently placed in the corresponding mouse cage, and the timing was started. After 30 min, the bottle was gently taken out and weighed, and the weight was recorded as Wi30.
3. Calculation of solution consumption of animals in each group: ΔWW(g)=[…]; calculation of solution consumption of single mouse: ΔpWW(g)=ΔWW/N, N is the number of animals in each group.
4. Dysgeusia rate=(ΔpWW of the group in which the drinking water was the aqueous solution of quinine hydrochlorideand the test compound was administered at the same time −ΔpWW of the group in which the drinking water was aqueous solution of quinine hydrochlorideand the solvent control was administered at the same time)/(ΔpWW of the group in which the drinking water was ultrapure water and the solvent control was administered at the same time −ΔpWW of the group in which the drinking water was aqueous solution of quinine hydrochloride and the solvent control was administered at the same time)×100%. Data processing was performed with software such as Excel.

T1 sequence (Q12809 whole entry): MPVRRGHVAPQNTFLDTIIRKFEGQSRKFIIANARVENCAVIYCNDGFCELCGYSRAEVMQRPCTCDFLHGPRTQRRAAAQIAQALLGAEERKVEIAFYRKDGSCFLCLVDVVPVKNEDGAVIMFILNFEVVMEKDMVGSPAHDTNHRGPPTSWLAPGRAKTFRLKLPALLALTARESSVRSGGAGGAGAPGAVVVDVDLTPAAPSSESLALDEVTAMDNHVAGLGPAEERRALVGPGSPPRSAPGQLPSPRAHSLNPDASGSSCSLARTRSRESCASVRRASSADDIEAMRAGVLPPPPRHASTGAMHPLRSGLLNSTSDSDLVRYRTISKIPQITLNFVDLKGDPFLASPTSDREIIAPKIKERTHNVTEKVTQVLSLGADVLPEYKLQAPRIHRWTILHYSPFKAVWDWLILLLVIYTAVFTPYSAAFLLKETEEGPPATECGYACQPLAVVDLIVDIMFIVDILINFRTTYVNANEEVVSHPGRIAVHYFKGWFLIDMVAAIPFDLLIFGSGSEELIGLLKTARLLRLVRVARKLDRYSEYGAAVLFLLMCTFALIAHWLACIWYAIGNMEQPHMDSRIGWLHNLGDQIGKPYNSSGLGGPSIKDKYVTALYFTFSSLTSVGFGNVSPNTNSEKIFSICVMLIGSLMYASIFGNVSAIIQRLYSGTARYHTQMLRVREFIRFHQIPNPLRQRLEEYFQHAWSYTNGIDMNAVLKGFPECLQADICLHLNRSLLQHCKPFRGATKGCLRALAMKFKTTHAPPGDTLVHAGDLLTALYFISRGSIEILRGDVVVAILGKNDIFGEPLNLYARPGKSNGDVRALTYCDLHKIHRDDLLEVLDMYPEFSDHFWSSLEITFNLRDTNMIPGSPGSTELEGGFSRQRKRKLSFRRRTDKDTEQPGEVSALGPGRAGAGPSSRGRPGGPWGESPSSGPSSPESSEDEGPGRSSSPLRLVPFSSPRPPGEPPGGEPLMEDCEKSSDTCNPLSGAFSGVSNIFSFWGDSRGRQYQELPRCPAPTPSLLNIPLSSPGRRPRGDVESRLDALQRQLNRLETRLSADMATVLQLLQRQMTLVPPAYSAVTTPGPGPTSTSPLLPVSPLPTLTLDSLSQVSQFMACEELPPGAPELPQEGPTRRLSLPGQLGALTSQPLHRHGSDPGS

In general, Tmax refers to the time at which the peak concentration occurs. A word on the fraction unbound: it is the share of the substance not bound to proteins or other matrix. Take `CCc1cc2n(CC(=O)Nc3ccc(F)cn3)c(=O)c3ccc(C(F)(F)F)nc3n2n1` [Example 34, 2-(2-Ethyl-5-oxo-8-(trifluoromethyl)pyrazolo[1,5-a]pyrido[3,2-e]pyrimidin-4(5H)-yl)-N-(5-fluoropyridin-2-yl)acetamide]: in series [1], the AUC(0-t) stood at 5780 ng·h/mL, the MRT inf was found to be 6.2 h, the half-life was 3.5 h and the Tmax was determined as 4 h. Also, in series [1], the Cmax came to 904 ng/mL. Also, the fraction unbound at 6 h, 5 μM in series [2] was determined as 0.032.

The IC50 is the concentration at which inhibition is half-maximal. With `O=C(Cn1c(=O)c2ccc(C(F)(F)F)nc2n2nc(Br)cc12)Nc1ccc(F)cn1` [Example 61-A, 2-(2-bromo-5-oxo-8-(trifluoromethyl)pyrazolo[1,5-a]pyrido[3,2-e]pyrimidin-4(5H)-yl)-N-(5-fluoropyridin-2-yl)acetamide], in series [1], the AUC(0-t) stood at 12000 ng·h/mL, the MRT inf worked out at 5.8 h, the half-life was 8 h and the time to peak (Tmax) is 2 h. For the same compound, the Cmax in series [1] was found to be 1550 ng/mL. Further, the fraction unbound at 6 h, 5 μM in series [2] is 0.037. Also, the IC50 against hERG potassium channel is greater than 10 µM. In the series on BALB/c mice, the “Solution consumption of single mouse, Quinine solution” value (from here on “Solution consumption of single mouse”) was 0.048 g and the Dysgeusia rate was −3.77%.

In the case of `N#Cc1cc2n(CC(=O)Nc3ccc(F)cn3)c(=O)c3ccc(C(F)(F)F)nc3n2n1` [Example 68, 2-(2-Cyano-5-oxo-8-(trifluoromethyl)pyrazolo[1,5-a]pyrido[3,2-e]pyrimidin-4(5H)-yl)-N-(5-fluoropyridin-2-yl)acetamide], in series [1], the AUC(0-t) was 9850 ng·h/mL, the MRT inf is 3.5 h, the half-life was 1.8 h and the Tmax stood at 4 h. Also, the Cmax in series [1] was 1880 ng/mL. The same compound had a fraction unbound at 6 h, 5 μM in series [2] of 0.084. The IC50 at hERG potassium channel was 18.4 µM. Further, in the series on BALB/c mice, the “Solution consumption of single mouse” value came out at 0.056 g and the Dysgeusia rate is −2.26%.

Turning to `O=C(Cn1c(=O)c2ccc(C(F)(F)F)nc2n2nccc12)Nc1ccc(F)cn1` [Example 78, N-(5-Fluoropyridin-2-yl)-2-(5-oxo-8-(trifluoromethyl)pyrazolo[1,5-a]pyrido[3,2-e]pyrimidin-4(5H)-yl)acetamide], in series [1], the AUC(0-t) was determined as 6810 ng·h/mL, the MRT inf amounted to 3.7 h, the half-life was 1.7 h and the Tmax worked out at 2 h. Besides, the Cmax in series [1] came to 1220 ng/mL. The same compound registered a fraction unbound at 6 h, 5 μM in series [2] of 0.147. Also, the IC50 against hERG potassium channel was greater than 10 µM. Moreover, in the series with BALB/c mice, the “Solution consumption of single mouse” value is 0.016 g and the Dysgeusia rate is −9.81%.

For `N#Cc1cnn2c3nc(C(F)(F)F)ccc3c(=O)n(CC(=O)Nc3ccc(F)cn3)c12` [Example 80, 2-(3-Cyano-5-oxo-8-(trifluoromethyl)pyrazolo[1,5-a]pyrido[3,2-e]pyrimidin-4(5H)-yl)-N-(5-fluoropyridin-2-yl)acetamide], in series [1], the AUC(0-t) was found to be 21300 ng·h/mL, the MRT inf was found to be 13.6 h, the half-life was 11.3 h and the Tmax turned out to be 4 h. In addition, the Cmax in series [1] was 2190 ng/mL. Moreover, the fraction unbound at 6 h, 5 μM in series [2] was determined as 0.135. The same compound came in with an IC50 against hERG potassium channel greater than 20 µM.

The values above are taken from patent US20230118497A1, “PYRAZOLE-CONTAINING POLYCYCLIC DERIVATIVE INHIBITOR, PREPARATION METHOD THEREFOR AND APPLICATION THEREOF” (Shanghai Hansoh Biomedical Co., Ltd., priority 2019, published 2023).
